In BindingDB's records for doi:10.1021/cb8001039 (National Cancer Institute-Bethesda, 2008):

Tests used:
Assay in all cases: FRET-Based RNase H Assay
Details in all cases: pH 8; 20 °C
[1] = target: T1, Ribonuclease HI (Escherichia coli (strain K12), UniProt P0A7Y4)
T1 sequence (P0A7Y4 whole entry): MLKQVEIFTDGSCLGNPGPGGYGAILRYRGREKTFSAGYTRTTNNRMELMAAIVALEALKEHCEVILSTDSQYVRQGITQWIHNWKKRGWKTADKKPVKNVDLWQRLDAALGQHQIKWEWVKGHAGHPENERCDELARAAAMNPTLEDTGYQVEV
Description: (§1) RNaseH assays were performed using an 18-nucleotide 3-fluorescein-labeled RNA annealed to a complementary 18-nucleotide 5-dabcyl conjugated DNA. The increase in fluorescence as a result of RNase H hydrolysis was monitored with a Spectramax Gemini EM fluorescence spectrometer. Data were analyzed using the instrument manufacturer SoftMax pro software. To determine IC50 values, the slope of the curve representing the time dependent increase in fluorescence was determined at 10 min, when initial rate conditions are met and substrate depletion is not significant. The slope values were plotted against the logarithm of the inhibitor concentrations, and IC50 values were determined using SigmaPlot software.

[2] = target: T2, Gag-Pol polyprotein [613-1167,R896S,E946D,S1117V]/[618-1043,R896S,E946D] (Human immunodeficiency virus 2, UniProt P04584, E946D/R896S/S1117V)
T2 construct: 613-1167; 618-1043
T2 sequence (P04584 613-1167, looked up, stated change not applied): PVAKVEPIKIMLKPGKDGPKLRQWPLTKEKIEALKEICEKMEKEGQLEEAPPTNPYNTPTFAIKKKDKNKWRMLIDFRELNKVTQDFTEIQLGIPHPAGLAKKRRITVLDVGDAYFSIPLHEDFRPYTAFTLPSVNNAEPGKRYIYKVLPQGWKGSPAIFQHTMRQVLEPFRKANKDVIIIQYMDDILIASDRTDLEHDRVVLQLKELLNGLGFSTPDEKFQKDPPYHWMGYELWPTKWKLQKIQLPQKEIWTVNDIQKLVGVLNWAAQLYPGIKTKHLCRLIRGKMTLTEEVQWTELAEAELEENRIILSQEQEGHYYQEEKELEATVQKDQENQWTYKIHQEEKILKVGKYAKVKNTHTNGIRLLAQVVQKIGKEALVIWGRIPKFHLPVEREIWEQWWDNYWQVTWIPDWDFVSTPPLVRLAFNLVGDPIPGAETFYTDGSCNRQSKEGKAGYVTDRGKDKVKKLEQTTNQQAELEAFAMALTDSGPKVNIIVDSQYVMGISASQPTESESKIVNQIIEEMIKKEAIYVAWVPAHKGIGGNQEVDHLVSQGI
T2 sequence (P04584 618-1043, looked up, stated change not applied): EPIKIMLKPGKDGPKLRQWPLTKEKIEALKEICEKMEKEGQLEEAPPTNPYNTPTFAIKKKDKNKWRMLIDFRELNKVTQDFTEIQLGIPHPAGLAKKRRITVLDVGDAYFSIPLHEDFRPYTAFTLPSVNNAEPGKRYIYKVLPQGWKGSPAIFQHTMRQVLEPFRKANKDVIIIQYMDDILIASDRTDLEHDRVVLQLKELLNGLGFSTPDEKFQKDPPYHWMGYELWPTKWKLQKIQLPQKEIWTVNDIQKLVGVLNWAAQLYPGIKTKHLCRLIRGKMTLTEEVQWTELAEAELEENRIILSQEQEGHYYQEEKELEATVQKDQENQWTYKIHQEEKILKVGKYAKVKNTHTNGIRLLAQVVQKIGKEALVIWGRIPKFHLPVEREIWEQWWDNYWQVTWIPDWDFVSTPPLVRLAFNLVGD
Description: as §1

[3] = target: T3, Ribonuclease H1 (Homo sapiens, UniProt O60930)
T3 sequence (O60930 whole entry): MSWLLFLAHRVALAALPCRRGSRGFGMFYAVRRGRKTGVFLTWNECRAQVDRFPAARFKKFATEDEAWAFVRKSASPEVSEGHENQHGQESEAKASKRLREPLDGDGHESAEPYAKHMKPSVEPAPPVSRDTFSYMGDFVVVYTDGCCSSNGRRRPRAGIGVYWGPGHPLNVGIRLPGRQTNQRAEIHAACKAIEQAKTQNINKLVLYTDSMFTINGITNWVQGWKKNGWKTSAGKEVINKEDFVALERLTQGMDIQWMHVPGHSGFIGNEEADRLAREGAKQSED
Description: as §1

[4] = target: T4, Gag-Pol polyprotein [600-1029,C879S]/[600-1159,C879S] (Human immunodeficiency virus 1, UniProt P03366, C879S)
T4 construct: 600-1029; 600-1159
Description: as §1

NC(=O)c1c(N)sc2c1CCCCC2 [SMR000066289]
IC50 [1]: 100 µM | IC50 [2]: 2.5 µM | IC50 [3]: 10.6 µM | IC50 [4]: 2 µM

Cc1sc(NC(=O)c2ccco2)c(C(N)=O)c1C [vinylogous urea, NSC727448]
IC50 [1]: 73 µM | IC50 [2]: 5 µM | IC50 [3]: 29 µM | IC50 [4]: 3.2 µM
